Experimental data reported in PubChem BioAssay (NCI).
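A five-concentration, 48-hour dose response in 96-well plates underlies each endpoint, interpolated linearly between surrounding concentrations. At the TGI there is no net growth.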

Experiments:
Assay in all cases: NCI anticancer screen, dose series, 48 h
MOLT-4 leukemia = test system: MOLT-4 leukemia
LOX IMVI melanoma = test system: LOX IMVI melanoma
HOP-62 NSCLC = test system: HOP-62 NSCLC
SN12C renal = test system: SN12C renal
IGROV1 ovarian = test system: IGROV1 ovarian
HT29 colon = test system: HT29 colon
RPMI-8226 leukemia = test system: RPMI-8226 leukemia
NCI-H460 lung = test system: NCI-H460 lung
MALME-3M melanoma = test system: MALME-3M melanoma
SF-539 CNS = test system: SF-539 CNS
OVCAR-8 ovarian = test system: OVCAR-8 ovarian
786-0 renal = test system: 786-0 renal
NCI-H23 lung = test system: NCI-H23 lung
K-562 leukemia = test system: K-562 leukemia
U251 CNS = test system: U251 CNS
HCT-116 colon = test system: HCT-116 colon
CCRF-CEM leukemia = test system: CCRF-CEM leukemia
OVCAR-3 ovarian = test system: OVCAR-3 ovarian
EKVX NSCLC = test system: EKVX NSCLC
HS 578T breast = test system: HS 578T breast
PC-3 prostate = test system: PC-3 prostate
BT-549 breast = test system: BT-549 breast
A498 renal = test system: A498 renal
HCT-15 colon = test system: HCT-15 colon
CAKI-1 renal = test system: CAKI-1 renal
SK-MEL-2 melanoma = test system: SK-MEL-2 melanoma
MDA-MB-435 = test system: MDA-MB-435
HOP-92 NSCLC = test system: HOP-92 NSCLC
SK-MEL-5 melanoma = test system: SK-MEL-5 melanoma
SW-620 colon = test system: SW-620 colon
OVCAR-5 ovarian = test system: OVCAR-5 ovarian
SF-295 CNS = test system: SF-295 CNS
RXF 393 renal = test system: RXF 393 renal
T-47D breast = test system: T-47D breast
MCF7 breast = test system: MCF7 breast
HL-60(TB) leukemia = test system: HL-60(TB) leukemia
HCC-2998 colon = test system: HCC-2998 colon
NCI/ADR-RES ovarian = test system: NCI/ADR-RES ovarian
DU-145 prostate = test system: DU-145 prostate
SR leukemia = test system: SR leukemia
OVCAR-4 ovarian = test system: OVCAR-4 ovarian
UACC-62 melanoma = test system: UACC-62 melanoma
UACC-257 melanoma = test system: UACC-257 melanoma
MDA-N = test system: MDA-N
SK-OV-3 ovarian = test system: SK-OV-3 ovarian
M14 melanoma = test system: M14 melanoma
KM12 colon = test system: KM12 colon
SNB-19 CNS = test system: SNB-19 CNS
ACHN renal = test system: ACHN renal
SK-MEL-28 melanoma = test system: SK-MEL-28 melanoma
COLO 205 colon = test system: COLO 205 colon
TK-10 renal = test system: TK-10 renal
NCI-H522 lung = test system: NCI-H522 lung
A549 NSCLC = test system: A549 NSCLC
MDA-MB-231 breast = test system: MDA-MB-231 breast
SF-268 CNS = test system: SF-268 CNS
NCI-H226 lung = test system: NCI-H226 lung
UO-31 renal = test system: UO-31 renal
SNB-75 CNS = test system: SNB-75 CNS

Compound `O=C1c2ccccc2C(=O)c2nn(N=P(CP(=Nn3nc4c(n3)C(=O)c3ccccc3C4=O)(c3ccccc3)c3ccccc3)(c3ccccc3)c3ccccc3)nc21` has a TGI (MOLT-4 leukemia) of over 100 µM, a TGI (LOX IMVI melanoma) of over 100 µM and a TGI (HOP-62 NSCLC) of over 100 µM. It also gave a TGI (SN12C renal) of over 100 µM, a TGI (IGROV1 ovarian) of over 100 µM and a TGI (HT29 colon) of over 100 µM. For the same compound, the TGI (RPMI-8226 leukemia) was over 100 µM, the TGI (NCI-H460 lung) was over 100 µM and the TGI (MALME-3M melanoma) was over 100 µM. For the same compound, the TGI (SF-539 CNS) was over 100 µM, the TGI (OVCAR-8 ovarian) was over 100 µM and the TGI (786-0 renal) was over 100 µM. It also gave a TGI (NCI-H23 lung) of over 100 µM, a TGI (K-562 leukemia) of over 100 µM and a TGI (U251 CNS) of over 100 µM. It also gave a TGI (HCT-116 colon) of over 100 µM, a TGI (CCRF-CEM leukemia) of over 100 µM and a TGI (OVCAR-3 ovarian) of over 100 µM. For the same compound, the TGI (EKVX NSCLC) was over 100 µM, the TGI (HS 578T breast) was over 100 µM and the TGI (PC-3 prostate) was over 100 µM. It also gave a TGI (BT-549 breast) of over 100 µM, a TGI (A498 renal) of over 100 µM and a TGI (HCT-15 colon) of over 100 µM. For the same compound, the TGI (CAKI-1 renal) was over 100 µM, the TGI (SK-MEL-2 melanoma) was over 100 µM and the TGI (MDA-MB-435) was over 100 µM. The TGI (HOP-92 NSCLC) was over 100 µM, the TGI (SK-MEL-5 melanoma) was over 100 µM and the TGI (SW-620 colon) was over 100 µM. For the same compound, the TGI (OVCAR-5 ovarian) was over 100 µM, the TGI (SF-295 CNS) was over 100 µM and the TGI (RXF 393 renal) was over 100 µM. It also gave a TGI (T-47D breast) of over 100 µM, a TGI (MCF7 breast) of over 100 µM and a TGI (HL-60(TB) leukemia) of over 100 µM. For the same compound, the TGI (HCC-2998 colon) was over 100 µM, the TGI (NCI/ADR-RES ovarian) was over 100 µM and the TGI (DU-145 prostate) was over 100 µM. It also gave a TGI (SR leukemia) of over 100 µM, a TGI (OVCAR-4 ovarian) of over 100 µM and a TGI (UACC-62 melanoma) of over 100 µM. It also gave a TGI (UACC-257 melanoma) of over 100 µM, a TGI (MDA-N) of over 100 µM and a TGI (SK-OV-3 ovarian) of over 100 µM. For the same compound, the TGI (M14 melanoma) was over 100 µM, the TGI (KM12 colon) was over 100 µM and the TGI (SNB-19 CNS) was over 100 µM. It also gave a TGI (ACHN renal) of over 100 µM, a TGI (SK-MEL-28 melanoma) of over 100 µM and a TGI (COLO 205 colon) of over 100 µM. The TGI (TK-10 renal) was over 100 µM, the TGI (NCI-H522 lung) was over 100 µM and the TGI (A549 NSCLC) was over 100 µM. The TGI (MDA-MB-231 breast) was over 100 µM and the TGI (SF-268 CNS) was over 100 µM.
`Cc1cc(=O)oc2cc(OC(=O)N(CCCl)CCCl)ccc12` gave a TGI (MOLT-4 leukemia) of over 100 µM, a TGI (LOX IMVI melanoma) of over 100 µM and a TGI (HOP-62 NSCLC) of over 100 µM. For the same compound, the TGI (SN12C renal) was over 100 µM, the TGI (IGROV1 ovarian) was over 100 µM and the TGI (HT29 colon) was over 100 µM. For the same compound, the TGI (RPMI-8226 leukemia) was over 100 µM, the TGI (NCI-H460 lung) was over 100 µM and the TGI (MALME-3M melanoma) was over 100 µM. It also gave a TGI (SF-539 CNS) of over 100 µM, a TGI (OVCAR-8 ovarian) of over 100 µM and a TGI (786-0 renal) of over 100 µM. For the same compound, the TGI (NCI-H23 lung) was over 100 µM, the TGI (K-562 leukemia) was over 100 µM and the TGI (U251 CNS) was over 100 µM. It also gave a TGI (HCT-116 colon) of over 100 µM, a TGI (CCRF-CEM leukemia) of over 100 µM and a TGI (OVCAR-3 ovarian) of over 100 µM. The TGI (EKVX NSCLC) was over 100 µM, the TGI (HS 578T breast) was over 100 µM and the TGI (PC-3 prostate) was over 100 µM. It also gave a TGI (BT-549 breast) of over 100 µM, a TGI (A498 renal) of over 100 µM and a TGI (HCT-15 colon) of over 100 µM. The TGI (CAKI-1 renal) was over 100 µM, the TGI (SK-MEL-2 melanoma) was over 100 µM and the TGI (MDA-MB-435) was over 100 µM. For the same compound, the TGI (HOP-92 NSCLC) was 95.9 µM, the TGI (SK-MEL-5 melanoma) was over 100 µM and the TGI (SW-620 colon) was over 100 µM. For the same compound, the TGI (OVCAR-5 ovarian) was over 100 µM, the TGI (SF-295 CNS) was over 100 µM and the TGI (RXF 393 renal) was over 100 µM. For the same compound, the TGI (T-47D breast) was over 100 µM, the TGI (MCF7 breast) was over 100 µM and the TGI (HL-60(TB) leukemia) was over 100 µM. It also gave a TGI (HCC-2998 colon) of over 100 µM, a TGI (NCI/ADR-RES ovarian) of over 100 µM and a TGI (DU-145 prostate) of over 100 µM. For the same compound, the TGI (SR leukemia) was over 100 µM, the TGI (OVCAR-4 ovarian) was over 100 µM and the TGI (UACC-62 melanoma) was over 100 µM. It also gave a TGI (UACC-257 melanoma) of over 100 µM, a TGI (MDA-N) of over 100 µM and a TGI (SK-OV-3 ovarian) of over 100 µM. It also gave a TGI (M14 melanoma) of over 100 µM, a TGI (NCI-H226 lung) of over 100 µM and a TGI (UO-31 renal) of over 100 µM. For the same compound, the TGI (KM12 colon) was over 100 µM, the TGI (SNB-19 CNS) was over 100 µM and the TGI (ACHN renal) was over 100 µM. For the same compound, the TGI (SK-MEL-28 melanoma) was over 100 µM, the TGI (COLO 205 colon) was over 100 µM and the TGI (TK-10 renal) was over 100 µM. The TGI (SNB-75 CNS) was over 100 µM, the TGI (NCI-H522 lung) was over 100 µM and the TGI (A549 NSCLC) was over 100 µM. The TGI (MDA-MB-231 breast) was over 100 µM and the TGI (SF-268 CNS) was over 100 µM.
